From the supplement of paper PMC10307832

Columns and labels:
Assay in all cases: relative viability (nuclei count vs DMSO), 5 days (fraction); higher = more cells survive
[1] = compound: COC1=CC=C(C=C1)CN2C=CC3=C2C=C(C=C3)C(=O)NO + Cc1cc(Nc2cc(N3CCN(C)CC3)nc(Sc3ccc(NC(=O)C4CC4)cc3)n2)n[nH]1 [Tozasertib] (partner 0.1 µM)
In short: (§1)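 One day after seeding in 1536-well plates, lung cancer cell lines were dosed by pin tool. Dosing was either single-drug or a fixed anchor-drug dose plus five library-drug doses (not always all listed) in √10 steps. After 5 days, nuclei were stained in one fix-and-stain step and counted on 4× images, and relative viability is the nuclei count of treated wells over that of vehicle wells, given as the median of duplicate plates.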

[2] = compound: COC1=CC=C(C=C1)CN2C=CC3=C2C=C(C=C3)C(=O)NO + N=C(N)NC(=N)NCCc1ccccc1 [Phenformin] (partner 250 µM)
In short: as §1

[3] = compound: C[C@]1(c2nc3c(C(N)=O)cccc3[nH]2)CCCN1 [Veliparib] + CC(C)C[C@H](NC(=O)[C@H](Cc1ccccc1)NC(=O)c1cnccn1)B(O)O [Bortezomib] (partner 0.002 µM)
In short: as §1

[4] = compound: C[C@]1(c2nc3c(C(N)=O)cccc3[nH]2)CCCN1 [Veliparib] + CS(=O)(=O)CCNCc1ccc(-c2ccc3ncnc(Nc4ccc(OCc5cccc(F)c5)c(Cl)c4)c3c2)o1 [Lapatinib] (partner 2 µM)
In short: as §1

Cell Line	relative viability ([1]; first compound 0.08 µM)	relative viability ([1]; first compound 0.253 µM)	relative viability ([1]; first compound 0.8 µM)	relative viability ([1]; first compound 2.53 µM)	relative viability ([1]; first compound 8 µM)	relative viability ([2]; first compound 0.08 µM)	relative viability ([2]; first compound 0.253 µM)	relative viability ([2]; first compound 0.8 µM)	relative viability ([2]; first compound 2.53 µM)	relative viability ([2]; first compound 8 µM)	relative viability ([3]; first compound 0.02 µM)	relative viability ([3]; first compound 0.06325 µM)	relative viability ([3]; first compound 0.2 µM)	relative viability ([3]; first compound 0.6325 µM)	relative viability ([3]; first compound 2 µM)	relative viability ([4]; first compound 0.02 µM)	relative viability ([4]; first compound 0.06325 µM)	relative viability ([4]; first compound 0.2 µM)	relative viability ([4]; first compound 0.6325 µM)	relative viability ([4]; first compound 2 µM)
HCC-44	0.803	0.909	0.946	0.863	0.792	0.166	0.231	0.185	0.228	0.16	0.885	0.759	0.879	0.829	0.846	0.986	0.85	1.01	0.933	1.07
HCC-78	0.34	0.329	0.397	0.395	0.38	0.62	0.63	0.718	0.818	0.65	0.537	0.482	0.639	0.428	0.474	0.762	0.837	0.652	0.849	0.566
HCC-366	0.0975	0.116	0.124	0.354	0.0739	0.633	0.624	0.634	0.599	0.532	1.06	1.05	1.01	1.07	1.07	1.06	0.897	0.929	0.974	1.09
HCC-827	0.405	0.427	0.442	0.416	0.415	0.427	0.382	0.386	0.417	0.394	1.02	0.914	1.01	1.13	1.13	0.199	0.191	0.182	0.177	0.191
HOP-62	0.304	0.353	0.392	0.33	0.349	0.583	0.658	0.696	0.643	0.623	0.729	1.16	0.811	0.733	0.951	1.14	0.878	0.951	0.99	1.12
LC-2-ad	0.384	0.46	0.485	0.411	0.382	0.493	0.577	0.561	0.588	0.479	–	0.987	0.985	0.944	1.05	–	0.813	0.967	0.94	0.951
LCLC-97TM1	0.16	0.219	0.193	0.196	0.209	0.176	0.399	0.441	0.46	0.353	–	0.269	0.554	1.12	0.834	0.734	0.828	1.45	–	1.22
LOU-NH91	0.407	0.693	0.66	0.64	0.587	0.612	0.678	0.702	0.766	0.637	0.486	0.387	0.511	0.464	0.476	0.708	0.656	0.82	0.735	0.781
LU99A	–	0.254	0.298	0.277	0.298	–	0.826	0.915	0.875	0.685	1.16	1.1	0.833	1.06	1.29	1.03	0.926	0.585	0.859	0.87
LXF-289	–	0.231	0.164	0.195	0.182	–	0.554	0.517	0.512	0.508	0.997	0.975	1	0.959	1.02	0.903	0.878	0.897	0.904	0.928
NCI-H23	0.292	0.352	0.358	0.301	0.281	0.699	0.843	0.852	0.712	0.653	0.887	1.04	1.02	0.883	1.08	1.19	0.995	0.84	0.873	1.01
NCI-H322M	–	0.497	0.525	0.485	0.439	–	0.821	0.762	0.737	0.763	1.25	1.15	1.26	1.07	1.17	0.722	0.602	0.629	0.61	0.471
NCI-H460	0.309	0.381	0.422	0.411	0.195	0.519	0.463	0.509	0.473	0.188	–	0.952	1.01	1.07	1.09	–	0.866	0.909	0.904	1.01
NCI-H520	–	0.453	0.428	0.449	0.375	–	0.618	0.645	0.703	0.503	0.532	0.67	0.791	0.608	0.643	0.986	0.859	0.912	0.733	0.858
NCI-H596	1.05	0.823	0.872	0.938	0.743	0.774	0.99	0.769	0.655	0.666	1.14	1	1.06	1.11	0.902	1.14	0.902	1.01	1.19	1.01
NCI-H647	0.224	0.237	0.314	0.262	0.267	0.371	0.525	0.443	0.474	0.404	1.23	1	0.847	0.985	0.965	1.24	0.986	0.973	1	1.16
NCI-H650	0.595	0.69	0.786	0.673	0.672	0.468	0.45	0.488	0.458	0.399	0.635	0.675	0.64	0.744	0.565	0.82	0.827	0.816	0.932	0.501

Cell Line	relative viability ([1]; first compound 0.08 µM)	relative viability ([1]; first compound 0.253 µM)	relative viability ([1]; first compound 0.8 µM)	relative viability ([1]; first compound 2.53 µM)	relative viability ([1]; first compound 8 µM)	relative viability ([2]; first compound 0.08 µM)	relative viability ([2]; first compound 0.253 µM)	relative viability ([2]; first compound 0.8 µM)	relative viability ([2]; first compound 2.53 µM)	relative viability ([2]; first compound 8 µM)	relative viability ([3]; first compound 0.02 µM)	relative viability ([3]; first compound 0.06325 µM)	relative viability ([3]; first compound 0.2 µM)	relative viability ([3]; first compound 0.6325 µM)	relative viability ([3]; first compound 2 µM)	relative viability ([4]; first compound 0.02 µM)	relative viability ([4]; first compound 0.06325 µM)	relative viability ([4]; first compound 0.2 µM)	relative viability ([4]; first compound 0.6325 µM)	relative viability ([4]; first compound 2 µM)
NCI-H661	–	0.356	0.369	0.328	0.329	–	0.271	0.313	0.272	0.29	0.635	0.877	0.767	0.731	0.777	0.413	0.483	0.56	0.447	0.533
NCI-H727	0.592	0.529	0.772	0.602	0.625	0.603	0.475	0.517	0.534	0.415	0.381	0.754	0.755	0.82	0.815	0.388	0.759	0.9	0.876	0.734
NCI-H838	–	0.267	0.293	0.274	0.267	–	0.589	0.6	0.628	0.456	0.905	0.79	0.926	0.686	0.848	1.12	0.842	0.902	0.847	0.979
NCI-H1355	–	0.548	0.585	0.531	0.515	–	0.459	0.52	0.482	0.426	–	0.707	1.23	1.09	1.15	–	0.882	0.999	0.939	0.968
NCI-H1437	0.321	0.446	0.395	0.42	0.409	0.289	0.348	0.36	0.424	0.274	0.424	0.496	0.472	0.47	0.474	0.519	0.794	0.72	0.78	0.759
NCI-H1650	0.391	0.379	0.447	0.416	0.326	0.4	0.447	0.422	0.334	0.204	–	0.195	0.204	0.2	0.182	–	0.702	0.855	0.739	0.718
NCI-H1651	0.574	0.717	0.799	0.713	0.645	0.349	0.302	0.39	0.325	0.275	0.924	0.883	0.908	0.918	0.876	0.557	0.755	0.92	0.835	0.775
NCI-H1666	0.498	0.622	0.571	0.641	0.628	0.559	0.558	0.557	0.579	0.523	0.879	0.599	0.81	0.666	0.875	0.606	0.348	0.675	0.744	0.662
NCI-H1734	–	0.236	0.242	0.251	0.23	–	0.413	0.386	0.392	0.383	0.911	0.779	0.904	0.827	1.01	1.16	0.982	0.933	0.981	1.12
NCI-H1755	0.512	0.688	0.619	0.584	0.524	0.595	0.678	0.636	0.637	0.61	0.888	0.892	0.924	0.954	0.868	1.02	1	1.01	0.99	0.989
NCI-H1915	0.259	0.431	0.422	0.355	0.401	0.348	0.38	0.378	0.359	0.348	0.939	1.02	0.842	0.915	0.755	0.96	0.897	0.756	0.872	0.885
NCI-H1975	0.69	0.852	0.707	0.692	0.551	0.442	0.417	0.431	0.407	0.399	0.394	0.465	0.429	0.412	0.424	0.843	0.765	0.831	0.873	0.911
NCI-H1993	0.568	0.627	0.517	0.6	0.567	0.512	0.571	0.445	0.477	0.457	0.994	1.31	1.13	1.03	1.06	0.794	0.759	0.823	0.851	0.85
NCI-H2009	0.65	0.514	0.741	0.73	0.64	0.489	0.483	0.482	0.501	0.43	0.299	0.869	0.808	0.919	1.15	0.748	0.903	0.909	0.815	1.03
NCI-H2023	0.296	0.314	0.415	0.389	0.396	0.38	0.409	0.383	0.392	0.299	0.505	0.913	0.937	0.965	0.924	0.428	0.759	0.743	0.745	0.862
NCI-H2085	0.859	0.817	0.96	0.907	0.751	0.739	0.758	0.84	0.722	0.647	0.655	0.915	0.898	1.07	0.862	0.473	0.684	0.677	0.782	0.637
